Data: US10966944B2, “[2.2.2] bicyclic derivatives and methods of use” (ASE PHARMACEUTICALS, LLC, priority 2008, dated 2021)

Legend:
epilepsy patients = experiment: Clinical trials in epilepsy patients and volunteers (Example 1); format: in vivo, human
Procedure: Clinical trials involving administration of sodium bicyclo-[2.2.2]-octane-2-carboxylate were performed on 30 epilepsy patients and 20 volunteers in two clinics in Moscow. […] Classification of the patients was done in accordance with International Classification of Epilepsy and Epileptic Syndromes (ILAE, 1989). Some of the subjects also suffered from addictive disorders (alcoholism, drug addiction). In 73% of trial subjects, sodium bicyclo-[2.2.2]-octane-2-carboxylate administration reduced the frequency, intensity, and duration of epileptic seizures. […] It normalized cerebral blood circulation and increased the sympathetic tonus of the patients. […] The following were used to assess trial subjects: • Visual checkup • EEG • CT • MRT • Clinical blood and urine tests • general blood test • biochemical blood test • general urine tests • Inspection and checkup of organs and systems: • respiratory system • cardiovascular system • alimentary system • urinary system • Neurological status • Concurrent disease status.

adult epilepsy patients [1] = experiment: ECG recording during the study (Example 2); format: in vivo, human; details: patients with extrasystolia and tachycardia
Description: Main study parameters included efficiency criteria such as the number and severity of seizures, and safety criteria such as the clinical and laboratory tests. The complete examination included: • 1) Neurological exams. • 2) Computer-assisted tomography (CAT scan). • 3) MRI of the brain. • 4) General blood work: baseline before Sodium bicyclo-[2.2.2]-octane-2-carboxylate treatment, 2 weeks and 1.5 months after the beginning of the treatment. • 5) General urine analysis. • 6) Blood biochemistry. • 7) ECG. • 8) EEG and pharmaco-EEG. Physical exams and testing results were registered by a research physician in the MRs and were analyzed by statistical methods. ECGs were recorded before the beginning of the treatment, during the course of the study (on a regular basis), and immediately after the study had been completed. […] In the patients with extrasystolia and tachycardia, extrasystolia was not observed by the end of the first treatment month, while the heart rate decreased on average from 88/min to 80/min. In the patients with bradycardia, sinus rhythm dropped further.

adult epilepsy patients [2] = experiment: Randomized open-controlled study, add-on to base therapy: frequency and severity of epileptic seizures (Example 2); format: in vivo, human
Procedure: The study of sodium bicyclo-[2.2.2]-octane-2-carboxylate as an addition to a base therapy was conducted in the group of adult epilepsy patients. Sodium bicyclo-[2.2.2]-octane-2-carboxylate was administered during 10 weeks. Thirty patients in both hospitals (twenty-six males and four females) were included in the studies.
Base therapy was administered in accordance with recommendations by the International Anti-epileptic League (1989). During the study, the patients continued to receive pathogenetic treatment. Medication names, doses and the duration of any treatment were registered in patients' medical records (MR). The patients continued receiving their standard prescribed medications and were not switched to a different drug at any time during the study.
During the introductory period of 7 to 10 days, the patients were examined; base therapy scheme was being finalized and was described in a standard protocol. In accordance with the protocol, the patients were screened for inclusion/exclusion factors. Only those patients who signed an informed consent and who satisfied the inclusion criteria were included in the study. The frequency of epileptic seizures in patients receiving pre-sodium bicyclo-[2.2.2]-octane-2-carboxylate base therapy varied from 1 to 16 times a month.
(§1) At the start of sodium bicyclo-[2.2.2]-octane-2-carboxylate protocol, all patients began receiving sodium bicyclo-[2.2.2]-octane-2-carboxylate at 100 mg four times a day. If the clinical effect was absent by day 14, the dose of Sodium bicyclo-[2.2.2]-octane-2-carboxylate was increased to 150 mg. Patients with various forms of epilepsy were selected for the study (Table 2).
(§2) Main study parameters included efficiency criteria such as the number and severity of seizures, and safety criteria such as the clinical and laboratory tests. The complete examination included: • 1) Neurological exams. • 2) Computer-assisted tomography (CAT scan). • 3) MRI of the brain. • 4) General blood work: baseline before Sodium bicyclo-[2.2.2]-octane-2-carboxylate treatment, 2 weeks and 1.5 months after the beginning of the treatment. • 5) General urine analysis. • 6) Blood biochemistry. • 7) ECG. • 8) EEG and pharmaco-EEG. Physical exams and testing results were registered by a research physician in the MRs and were analyzed by statistical methods.
To evaluate treatment efficacy, the frequency and severity of epileptic seizures were monitored. […] In the majority of patients suffering from partial epilepsy, seizures became less severe and occurred less frequently. The patients reported feeling better, with improvement of mood, work efficiency, and sleep quality. […]

adult epilepsy patients [3] = experiment: Blood chemistry before and after treatment (Example 2, safety); format: in vivo, human
Procedure: as §1, §2
(§3) The effective therapeutic dose was determined as 400 mg per day in 60% of the patients, and 600 mg per day in the remaining 40%. Safety aspects of sodium bicyclo-[2.2.2]-octane-2-carboxylate were evaluated during the treatment and after the treatment by monitoring the clinical and laboratory parameters.
(§4) Before-before Sodium bicyclo-[2.2.2]-octane-2-carboxylate treatment After-after Sodium bicyclo-[2.2.2]-octane-2-carboxylate treatment. No statistically significant differences in any other parameters before and after Sodium bicyclo-[2.2.2]-octane-2-carboxylate treatment were detected.

adult epilepsy patients [4] = experiment: EEG parameters before and after treatment (Example 2); format: in vivo, human; details: averaged, after treatment (before treatment: 197.7)
Description: as §2

adult epilepsy patients [5] = experiment: Dysphoria and general condition in the study patients (Example 2); format: in vivo, human
Procedure: During each scheduled visit and at the completion of the study, complete physical examination of each patient was performed. Physical exams included patients' general condition, examinations of the skin, ENT, lungs, heart, stomach, lymph nodes, central nervous system, etc. Valid data obtained before beginning of Sodium bicyclo-[2.2.2]-octane-2-carboxylate treatment was entered in appropriate sections of MRs. The data collected during the treatment (including the observed side effects) was entered in the Brief Description sections of the MRs. […] This effect correlated with disappearance of alcohol addiction.

adult epilepsy patients [6] = experiment: General blood work before and after treatment (Example 2, safety); format: in vivo, human
Procedure: as §1, §2, §3, §4

[7] = average, after treatment (before: 4.75)
[8] = deviation after vs before treatment

- melting point: 84 to 86 °C
- patients' behavior and the functions of major organs and systems (adult epilepsy patients [5]; during 10 weeks of treatment): not negatively affected
SMILES: O=C([O-])C1CC2CCC1CC2.[Na+] (centres unmarked) [Sodium bicyclo-[2.2.2]-octane-2-carboxylate]
- trial subjects with reduced frequency, intensity, and duration of epileptic seizures (epilepsy patients; 30 epilepsy patients and 20 volunteers, two clinics): 73%
- side effects in human clinical trials (epilepsy patients; human clinical trials): without significant negative side effects
- heart rate (adult epilepsy patients [1]; average, decreased from 88/min): 80 min⁻¹
- extrasystolia (adult epilepsy patients [1]; by the end of the first treatment month): not observed
- effective therapeutic dose (adult epilepsy patients [2]; in 60% of the patients): 400 mg per day
- effective therapeutic dose (adult epilepsy patients [2]; in the remaining 40% of the patients): 600 mg per day
- patients with decrease in seizure frequency (number) (adult epilepsy patients [2]; of 30 patients): 22 patients
- patients with decrease in seizure frequency (percent) (adult epilepsy patients [2]; of 30 patients): 73.3%
- Glucose, After (adult epilepsy patients [3]; [7]): 4.48 mmol/L
- General bilirubin, After (adult epilepsy patients [3]; average, after treatment (before: 14.3)): 11.5 µmol/L
- ACT, After (adult epilepsy patients [3]; average, after treatment (before: 45.1)): 24.6
- ALT, After (adult epilepsy patients [3]; average, after treatment (before: 46.2)): 21.5
- Creatinin, after (adult epilepsy patients [3]; average, after treatment (before: 70.5)): 69.4 µmol/L
- General Protein, After (adult epilepsy patients [3]; average, after treatment (before: 75.5)): 77.4 g/L
- ACT, % dev. (adult epilepsy patients [3]; [8]): 45.4%
- ALT, % dev. (adult epilepsy patients [3]; [8]): 53.5%
- Creatinin, % dev. (adult epilepsy patients [3]; [8]): 1.6%
- General Protein, % dev. (adult epilepsy patients [3]; [8]): 2.5%
- General bilirubin, % dev. (adult epilepsy patients [3]; [8]): 19.6%
- Glucose, % dev. (adult epilepsy patients [3]; [8]): 5.7%
- EEG parameters (focus of pathological activity) (adult epilepsy patients [4]): 151.5 μV
- cases with effective treatment of dysphoria or dysphoria-like conditions (adult epilepsy patients [5]; of all cases): 93.3%
- dysphoria and paroxysmal activity on EEG (adult epilepsy patients [5]; patients who suffered from alcohol addiction in the past, after 1.5 month of treatment): disappeared or decreased
- Color Index, After (adult epilepsy patients [6]; average, after treatment (before: 0.895)): 0.928
- Eosinophiles (%), After (adult epilepsy patients [6]; average, after treatment (before: 2.53)): 2.53%
- Monocytes (%), After (adult epilepsy patients [6]; average, after treatment (before: 3.0)): 2.8%
- Erythrocytes, After (adult epilepsy patients [6]; [7]): 4.79 10^12/L
- ESR, After (adult epilepsy patients [6]; average, after treatment (before: 7.3)): 5.2 mm
- Leukocytes, After (adult epilepsy patients [6]; average, after treatment (before: 7.9)): 7.47 10^9/L
- Lymphocytes (%), After (adult epilepsy patients [6]; average, after treatment (before: 20.9)): 21.1%
- Neutrophiles (%), After (adult epilepsy patients [6]; average, after treatment (before: 72.7)): 71.2%
- Hemoglobin, After (adult epilepsy patients [6]; average, after treatment (before: 143.4), in g/L (unit assumed)): 140.13
- Platelets, After (adult epilepsy patients [6]; average, after treatment (before: 205.5), in 10^9/L (unit assumed)): 230.3
- Color Index, % dev. (adult epilepsy patients [6]; [8]): 3.7%
- ESR, % dev. (adult epilepsy patients [6]; [8]): 28.8%
- Eosinophiles, % dev. (adult epilepsy patients [6]; [8]): 0%
- Erythrocytes, % dev. (adult epilepsy patients [6]; [8]): 1.48%
- Hemoglobin, % dev. (adult epilepsy patients [6]; [8]): 2.3%
- Leukocytes, % dev. (adult epilepsy patients [6]; [8]): 5.95%
- Lymphocytes, % dev. (adult epilepsy patients [6]; [8]): 0.94%
- Monocytes, % dev. (adult epilepsy patients [6]; [8]): 6.7%
- Neutrophiles, % dev. (adult epilepsy patients [6]; [8]): 2.06%
- Platelets, % dev. (adult epilepsy patients [6]; [8]): 12.07%
- effects on the blood counts and blood biochemistry (adult epilepsy patients [6]; during and after the treatment): No unfavorable effects
- changes in blood and urine tests (adult epilepsy patients [6]; summary of the study): did not cause any changes
